Columns and labels:
Coagulation factor X = Coagulation factor X (Homo sapiens, UniProt P00742); experiment: Inhibitory constant against Coagulation factor Xa (factor Xa); parameters: species or system Bos taurus
Serine protease 1 = molecular target: T1, Serine protease 1 (Bos taurus, UniProt P00760); experiment: Inhibitory constant against trypsin
T1 sequence (P00760 whole entry): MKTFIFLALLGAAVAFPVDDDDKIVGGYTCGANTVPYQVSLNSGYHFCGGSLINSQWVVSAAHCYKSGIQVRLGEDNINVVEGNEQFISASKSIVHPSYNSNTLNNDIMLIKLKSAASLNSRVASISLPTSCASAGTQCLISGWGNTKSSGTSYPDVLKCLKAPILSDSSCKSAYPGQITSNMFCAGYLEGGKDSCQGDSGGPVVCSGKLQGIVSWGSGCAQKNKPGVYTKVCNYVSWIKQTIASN

Coagulation factor X, sequence (P00742 41-179 limits assumed): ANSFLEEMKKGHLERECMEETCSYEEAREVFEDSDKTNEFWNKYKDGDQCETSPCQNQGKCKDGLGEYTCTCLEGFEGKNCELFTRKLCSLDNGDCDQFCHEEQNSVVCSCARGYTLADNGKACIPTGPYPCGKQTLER
Coagulation factor X, sequence (P00742 235-488 limits assumed): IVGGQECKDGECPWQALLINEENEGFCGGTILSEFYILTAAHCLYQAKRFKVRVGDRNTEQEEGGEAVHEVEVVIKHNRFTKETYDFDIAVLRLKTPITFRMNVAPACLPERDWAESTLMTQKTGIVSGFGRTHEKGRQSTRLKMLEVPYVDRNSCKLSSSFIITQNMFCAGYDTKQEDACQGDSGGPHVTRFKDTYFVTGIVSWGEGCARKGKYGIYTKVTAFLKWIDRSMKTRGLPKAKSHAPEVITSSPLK

| Ki (Coagulation factor X) [nM] | Ki (Serine protease 1) [nM] | SMILES |
| --- | --- | --- |
| 12 | 740 | Cc1c(F)c(Oc2cccc(C(=N)N)c2)cc(Oc2cccc(C(=N)N)c2)c1F |
| 1400 | 2900 | Cc1c(F)c(Oc2cccc(CN)c2)cc(Oc2cccc(C(=N)N)c2)c1F |

Source: ChEMBL document CHEMBL1132402, “Conformations of trypsin-bound amidine inhibitors of blood coagulant factor Xa by double REDOR NMR and MD simulations” (J Med Chem, 1999)
